Experiments:
Format in all cases: in vivo, rat
[1] = system: T2DN rats; experiment: Diabetic nephropathy model (T2DN rats): blood pressure by tail cuff method; details: compound A 0.02% in mixed diet, lisinopril 10 mg/kg/day in drinking water, alone or combined, before and one month after dosing, FIG. 1
Protocol: (§1) The effect of compound A combined with ACE inhibitor in rats as a diabetic nephropathy model.
(§2) The test was conducted with rats (T2DN rats) that were an inbred line of Goto-Kakizaki (GK) rats with a manifestation of type II diabetes mellitus and which were in an advanced stage of kidney tissue injury resulting from a long-continued diabetic condition. Rats in groups each consisting of 8-9 animals (aged 14 months on average) were given repeated doses of compound A (0.02% in mixed diet) and the ACE inhibitor lisinopril (10 mg/kg/day in drinking water), either independently or in combination, for three months. A group of rats receiving only a diet containing no compound A were pathologic controls. Before and one month after the dosing, blood pressure measurement was conducted by the tail cuff method using a noninvasive automatic hemodynamometer. After the repeated dosing, the kidneys were removed from each rat under anesthetization with ketamine and thiobutabarbital and fixed in 10% neutral buffered formalin. Thin slices of the kidneys were prepared and subjected to Masson's trichrome stain. After masking the tissue specimens, thirty glomeruli were extracted from each specimen.
Blood pressure was expressed by the mean blood pressure as calculated from systolic and diastolic pressures ((systolic pressure−diastolic pressure)/3+diastolic pressure)).

[2] = system: T2DN rats; experiment: Diabetic nephropathy model (T2DN rats): glomerular injury score, Masson's trichrome stain; details: compound A 0.02% in mixed diet, lisinopril 10 mg/kg/day in drinking water, alone or combined, three months, grade 0-4, 30 glomeruli, FIG. 2
Protocol: as §1, §2

[3] = system: T2DN rats; experiment: Diabetic nephropathy model (T2DN rats): renocortical (interstitial) fibrosis area by image analyzer; details: compound A 0.02% in mixed diet, lisinopril 10 mg/kg/day in drinking water, alone or combined, three months, FIG. 3
Protocol: as §1, §2
To evaluate the morbidity of interstitial fibrosis, the fibrotic area percentage of 10 regions per specimen was calculated on an image analyzer.

[4] = system: Goto-Kakizaki (GK) rats; experiment: Diabetic animal model (GK rats): systolic blood pressure by tail cuff method, crossover; details: GK rats on high-glucose diet; compound A in mixed diet, valsartan single oral dose, alone or combined; 1, 2, 4, 6 hours after administration; FIG. 4
Source text: The effect of compound A combined with angiotensin II receptor blocker in rats as a diabetic model. Goto-Kakizaki (GK) rats as model animals spontaneously manifesting non-obese diabetes mellitus (Japan SLC, Inc.) were fed a high-glucose diet containing compound A. During the feeding of compound A in a mixed diet, a vehicle or an angiotensin II receptor blocker was orally administered in a single dose and the effects of the two drugs, administered either independently or in combination, on blood pressure were studied by the crossover method. The systolic blood pressure was measured by the tail cuff method using a non-heated, noninvasive hemodynamometer immediately before the oral administration of the angiotensin II receptor blocker and 1, 2, 4, and 6 hours after such administration.

CCOc1ccc(Cc2cc([C@@H]3S[C@H](CO)[C@@H](O)[C@H](O)[C@H]3O)c(OC)cc2C)cc1 [Compound A, (1S)-1,5-anhydro-1-[3-(4-ethoxybenzyl)-6-methoxy-4-methylphenyl]-1-thio-D-glucitol]
blood pressure lowering action (mean blood pressure) [1]: little blood pressure lowering action
glomerular injury score (improvement of scores of glomerular damage) [2]: effective in improving scores of glomerular damage
renocortical fibrosis score (area of kidney interstitial fibrosis) [3]: effective in ameliorating kidney tissue damage
action for lowering the systolic blood pressure [4]: little blood lowering action

NCCCC[C@H](N[C@@H](CCc1ccccc1)C(=O)O)C(=O)N1CCC[C@H]1C(=O)O [Lisinopril, lisinopril]
blood pressure lowering action (mean blood pressure) [1]: a certain level of blood pressure lowering action
glomerular injury score (improvement of scores of glomerular damage) [2]: effective in improving scores of glomerular damage
renocortical fibrosis score (area of kidney interstitial fibrosis) [3]: no improvement in the area of interstitial fibrosis

CCCCC(=O)N(Cc1ccc(-c2ccccc2-c2nnn[nH]2)cc1)[C@H](C(=O)O)C(C)C [Valsartan, valsartan]
action for lowering the systolic blood pressure [4]: a certain level of action for lowering the systolic blood pressure

From patent US9320727B2, “Combinations of SGLT 2 inhibitors and antihypertensive drugs” (TAISHO PHARMACEUTICAL CO., LTD, priority 2012, dated 2016)
